How the values were obtained:
S-SMase [1] = target: T1, S-SMase (Homo sapiens, UniProt P17405); experiment: Zn2+ activation of S-SMase in presence of zinc-metalloproteinase inhibitors; type: biochemical
T1 sequence (P17405 47-631): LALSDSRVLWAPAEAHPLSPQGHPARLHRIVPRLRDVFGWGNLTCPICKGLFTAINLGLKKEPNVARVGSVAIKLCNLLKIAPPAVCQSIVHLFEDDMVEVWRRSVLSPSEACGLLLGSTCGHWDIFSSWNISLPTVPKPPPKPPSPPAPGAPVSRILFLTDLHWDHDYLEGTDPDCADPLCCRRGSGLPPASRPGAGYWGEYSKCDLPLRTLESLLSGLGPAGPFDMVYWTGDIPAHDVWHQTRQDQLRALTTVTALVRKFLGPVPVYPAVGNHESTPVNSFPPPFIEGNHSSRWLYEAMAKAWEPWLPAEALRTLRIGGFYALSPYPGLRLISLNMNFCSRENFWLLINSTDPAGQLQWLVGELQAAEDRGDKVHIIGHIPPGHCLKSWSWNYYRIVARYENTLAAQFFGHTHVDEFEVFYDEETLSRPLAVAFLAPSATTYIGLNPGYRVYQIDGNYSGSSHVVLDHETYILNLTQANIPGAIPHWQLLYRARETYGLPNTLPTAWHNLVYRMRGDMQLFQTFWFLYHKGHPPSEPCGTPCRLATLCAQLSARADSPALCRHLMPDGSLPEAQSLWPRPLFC
Description: SMase Assay—As previously described (Schissel et al., 1996), the standard 200-μl assay mixture consisted of up to 40 μl of sample (conditioned media or homogenized cells; see above) and a volume of assay buffer (0.1 M sodium acetate, pH 5.0) to bring the volume to 160 μl. The reaction was initiated by the addition of 40 μl substrate (50 pmol [^3H]sphingomyelin) in 0.25 M sucrose containing 3% Triton X-100 (final concentration of Triton X-100 in the 200-μl assay mix=0.6%). When added, the final concentrations of EDTA and Zn^2+ were 5 mM and 0.1 mm, respectively, unless indicated otherwise. […] The ceramide spots were scraped and directly counted to quantify [^3H]ceramide. Typically, the assay reactions contained approximately 20 μg of cellular homogenate protein and a volume of conditioned media derived from a quantity of cells equivalent to approximately 50 μg of cellular protein.
One question was how L- and S-SMase acquire their apparent differences in zinc-dependency. One explanation would be that the secreted form requires a Zn^2+-dependent co-factor. Because many lysosomal enzymes undergo proteolytic activation (Hasilik, 1992), an obvious candidate for a Zn^2+-dependent co-factor would be a zinc-metalloproteinase. The results of five experiments, however, ruled out this possibility. First, Zn^2+-activated S-SMase can be subsequently inactivated by Zn^2+-chelation (see below); reversibility of Zn^2+-induced activation is not consistent with proteolytic activation. […] Third, mammalian zinc-metalloproteinases require Ca^2+ as well as Zn^2+, for activity (Reynolds, 1996), whereas Ca^2+ is not a requirement for the activation of S-SMase (Schissel et al., 1996).

S-SMase [2] = target: T1, S-SMase; experiment: S-SMase treatment of [3H]SM-LDL and [3H]SM-emulsions at pH 7.4; type: biochemical; set-up: endogenous in cells; host or cells: primary HUVEC, 24-h serum-free conditioned medium
Description: [^3H]SM-emulsions. [^3H]SM-emulsions with a lipid composition similar to human LDL were prepared as follows: 5.4 mg cholesteryl oleate, 0.48 mg triolein, 1.08 mg free cholesterol, 2.04 mg phosphatidylcholine, 0.96 mg sphingomyelin, and 50 μCi [N-palmitoyl-9,10^−3H]sphingomyelin were all added in chloroform to a sonication vial and the solvent completely evaporated by exposure to a stream of nitrogen, followed by the high vacuum of a lyophilizer. The dried lipids were resuspended in 3 mL of buffer containing 150 mM NaCl, 0.3 mM EDTA pH 7.4 and sonicated under a stream of argon at 40° C. until translucent (approximately 90 min) The sonicated material was then centrifuged twice at 15,000×g to pellet any titanium shed from the sonication probe. SM-rich emulsions were prepared exactly as above except that 1.2 mg of phosphatidylcholine and 1.8 mg of SM were used, and sonication time was increased to 120 min. [^3H]SM-emulsions were enriched with apo CIII based on the method of Ahmad et al. (Ahmad et al., 1986). Briefly, [^3H]SM-emulsions (0.4 mL; 182 nmol SM) were incubated with 200 μg apo CIII (22.5 nmol) for 2 h at 40° C. A portion of the emulsions were re-isolated from free ape CIII using ultrafiltration (Clavey et al., 1995) as follows: the crude emulsion-apo CIII mixture was diluted to 2 mL with buffer containing 150 mM NaCl, 0.3 mM EDTA pH 7.4 and ultra filtered and concentrated to 0.2 mL using a CENTRICON® 30 (molecular weight cut-off=30,000); the concentrated emulsions were then diluted to 2 mL and the process was repeated 5 times. [^3H]SM-emulsions run through the same enrichment and re-isolation protocols in the absence of apo CIII served as the control for the experiments in FIG. 11A.
S-SMase. The source of S-SMase was serum-free conditioned medium from DG44 CHO cells stably transfected with the human acid SMase cDNA (Schissel et al., 1996; Schuchman et al., 1991). […] Cells were plated in 100-mm dishes and cultured for 48 h in DMEM/FBS/PSG. The cells were then changed to low protein serum-free media for 12 h. washed 3 times with PBS, and finally incubated for 18 h in fresh serum-free media (6 mL per 100-mm dish) The “18-h conditioned medium” was then collected, centrifuged at 1000×g to pellet any cells and, except where indicated, ZnCl2 (final concentration=100 μM) was added to fully activate and stabilize S-SMase; this S-SMase-containing conditioned media was then used fresh to treat LDL and lipid emulsions.
S-SMase Treatment of LDL and Emulsions. The standard incubation mixture consisted of up to 50 μl of sample (LDL or emulsions). […] The ceramide spots were scraped and directly counted to quantify [^3H]ceramide. In all other samples ceramide was determined as described above.

[3] = tested on: S-SMase secretion by HUVECs; experiment: Cytokine regulation of S-SMase secretion by HUVECs (SMase activity in conditioned media); type: cell-based, human; details: 18 h, interferon-β 1000 units/ml, IL-4 10 ng/ml
Description: Conditioned media (FIG. 23A) and cell homogenates (FIG. 23B) from these cells were then assayed for SMase activity in the presence or absence of 0.1 mM ZnCl2, respectively.
The cells were then washed 3 times with PBS and incubated for 24 h in 1 ml fresh serum-free media containing 0.2%6 BSA. This 24-h conditioned medium was collected for SMase assays.
Harvesting of Cells and Conditioned Media—Following the incubations described above and in the figure legends, cells were placed on ice and the serum-free conditioned media was removed. The cells were washed two times with ice-cold 0.25 M sucrose and scraped into 0.3 ml and 3.0 ml of this sucrose solution per 35-mm and 100-mm dishes, respectively. Unless indicated otherwise, the scraped cells were disrupted by sonication on ice using three 5-second bursts (Branson 450 Sonifier), and the cellular homogenates were assayed for total protein by the method of Lowry et al. (22) and for SMase activity as described below. The conditioned media were spun at 800×g for 5 min to pellet any contaminating cells and concentrated six-fold using a Centriprep 30 (Amicon; Beverly, Mass.) concentrator (molecular weight cut off=30,000).
Typically, our assay reactions contained approximately 20 μg of cellular homogenate protein and a volume of conditioned media derived from a quantity of cells equivalent to approximately 50 μg of cellular protein.

L-SMase = target: T2, L-SMase (Mus musculus, UniProt Q04519); experiment: SMase assay of cell homogenate from J774 macrophages (SM micelles, pH 5.0); type: biochemical; details: 1,10-phenanthroline alone
T2 construct: endogenous in cells; host or cells: J774.A1 macrophages, sonicated cell homogenate
T2 sequence (Q04519 45-627): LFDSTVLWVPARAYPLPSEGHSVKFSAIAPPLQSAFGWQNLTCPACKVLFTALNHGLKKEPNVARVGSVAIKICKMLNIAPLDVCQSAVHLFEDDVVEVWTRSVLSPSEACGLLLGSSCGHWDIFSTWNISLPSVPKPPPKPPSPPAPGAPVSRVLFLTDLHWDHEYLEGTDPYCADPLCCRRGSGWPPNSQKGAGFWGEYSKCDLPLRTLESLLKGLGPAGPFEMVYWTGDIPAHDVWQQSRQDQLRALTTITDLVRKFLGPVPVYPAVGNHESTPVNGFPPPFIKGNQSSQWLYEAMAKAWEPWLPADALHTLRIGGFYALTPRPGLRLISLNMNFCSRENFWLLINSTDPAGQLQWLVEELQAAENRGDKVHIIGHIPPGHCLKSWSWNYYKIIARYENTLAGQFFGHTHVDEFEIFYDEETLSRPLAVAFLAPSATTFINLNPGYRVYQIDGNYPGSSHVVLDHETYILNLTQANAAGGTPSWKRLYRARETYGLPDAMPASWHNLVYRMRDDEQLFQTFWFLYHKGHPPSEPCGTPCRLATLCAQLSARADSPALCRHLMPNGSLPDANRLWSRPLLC
Description: FIGS. 14A-B. Sequential chelation and addition of Zn^2+ to secreted and intracellular SMase. Serum-free conditioned medium and a cell homogenate from J774 macrophages were prepared as described in “Experimental Procedures”. FIG. 14A, conditioned medium (CM) was assayed for SMase activity using 250 nM [^3H]sphingomyelin in Triton X-100 micelles in the presence of either 5 mM EDTA (first bar) or 0.1 mM ZnCl2 (second bar) for 1 h at 37° C. at pH 5.0. An aliquot of the Zn-activated conditioned medium was then incubated for 18 h in the presence of 10 mM EDTA, 10 mM 1,10-phenanthroline, and 0.6% Triton X-100 at 4° C. (EDTA PHNANTH) and then assayed for SMase activity (third bar). […]
(§1) SMase Assay—As previously described (Schissel et al., 1996), the standard 200-μl assay mixture consisted of up to 40 μl of sample (conditioned media or homogenized cells; see above) and a volume of assay buffer (0.1 M sodium acetate, pH 5.0) to bring the volume to 160 μl. […] The ceramide spots were scraped and directly counted to quantify [^3H]ceramide. Typically, the assay reactions contained approximately 20 μg of cellular homogenate protein and a volume of conditioned media derived from a quantity of cells equivalent to approximately 50 μg of cellular protein.

S-SMase [4] = target: T3, S-SMase (Mus musculus, UniProt Q04519); experiment: SMase assay of conditioned medium from J774 macrophages (SM micelles, pH 5.0); type: biochemical; details: 1,10-phenanthroline alone
T3 construct: endogenous in cells; host or cells: J774.A1 macrophages, serum-free conditioned medium
T3 sequence (Q04519 45-627): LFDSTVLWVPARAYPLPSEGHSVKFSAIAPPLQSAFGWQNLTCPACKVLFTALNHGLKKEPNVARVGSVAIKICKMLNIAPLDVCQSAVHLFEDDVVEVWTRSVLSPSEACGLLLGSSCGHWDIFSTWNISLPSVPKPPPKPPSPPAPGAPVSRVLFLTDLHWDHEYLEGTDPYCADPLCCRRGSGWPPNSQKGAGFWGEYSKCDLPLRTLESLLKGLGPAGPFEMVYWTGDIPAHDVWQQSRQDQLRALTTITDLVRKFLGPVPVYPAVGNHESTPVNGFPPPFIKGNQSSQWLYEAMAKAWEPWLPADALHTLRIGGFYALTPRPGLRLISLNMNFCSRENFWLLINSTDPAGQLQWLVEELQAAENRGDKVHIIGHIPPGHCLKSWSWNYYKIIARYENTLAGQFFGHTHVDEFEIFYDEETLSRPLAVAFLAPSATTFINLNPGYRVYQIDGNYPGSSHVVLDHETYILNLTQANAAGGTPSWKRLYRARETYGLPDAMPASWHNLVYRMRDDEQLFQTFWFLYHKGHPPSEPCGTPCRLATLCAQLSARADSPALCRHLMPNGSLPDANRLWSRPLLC
Description: FIGS. 14A-B. Sequential chelation and addition of Zn^2+ to secreted and intracellular SMase. Serum-free conditioned medium and a cell homogenate from J774 macrophages were prepared as described in “Experimental Procedures”. FIG. 14A, conditioned medium (CM) was assayed for SMase activity using 250 nM [^3H]sphingomyelin in Triton X-100 micelles in the presence of either 5 mM EDTA (first bar) or 0.1 mM ZnCl2 (second bar) for 1 h at 37° C. at pH 5.0. An aliquot of the Zn-activated conditioned medium was then incubated for 18 h in the presence of 10 mM EDTA, 10 mM 1,10-phenanthroline, and 0.6% Triton X-100 at 4° C. (EDTA PHNANTH) and then assayed for SMase activity (third bar). After chelation, a portion of this partially inactivated conditioned medium was then dialyzed against zinc-containing buffer C (150 mM NaCl, 10 mM Tris-HCl, 1 mM ZnCl2, 0.6% Triton X-100, pH 7.4) for 18 h and then assayed for SMase activity (fourth bar). FIG. 14B, an aliquot of cell homogenate (Cell Homgn) was assayed for SMase activity in the presence of assay buffer alone (first bar), 5 mM EDTA (second bar), or 0.1 mM ZnCl2 (third bar). Another aliquot of cell homogenate was incubated for 8 h in the presence of 10 mM EDTA, 10 mm 1,10-phenanthroline, and 0.6% Triton X-100 (EDTA PHNANTH) at 4° C. and then assayed for SMase activity (fourth bar). An aliquot of this chelator-treated cell homogenate was then dialyzed against zinc-containing buffer C for 18 h and then assayed for SMase activity (fifth bar).
as §1

HO—NH—CO—CH2—CH(CH2CH(CH3)2)—C)-Nal-Ala-NH—CH2—CH2—NH2
effect on ability of Zn2+ to activate S-SMase (S-SMase [1]): did not affect

apo CIII: human native apolipoprotein CIII
S-SMase hydrolysis of [3H]SM-emulsions versus control emulsions (S-SMase [2]; emulsion-bound + free apo CIII): two-fold greater
S-SMase hydrolysis of [3H]SM-emulsions versus control emulsions (S-SMase [2]; emulsion-bound apo CIII only): approximately ten-fold more

IL-4: human recombinant interleukin-4
accumulation of S-SMase in conditioned media (qualitative) [3]: no effect

c1cnc2c(c1)ccc1cccnc12 [1,10-phenanthroline]
inhibition of L-SMase (L-SMase): does not inhibit
inhibition of S-SMase (S-SMase [4]): does not inhibit

TIMP-1: tissue inhibitor of metalloproteinase-1, inhibitor of zinc-metalloproteinases
effect on ability of Zn2+ to activate S-SMase (S-SMase [1]): did not affect

lysophosphatidylcholine
stimulation of S-SMase hydrolysis of [3H]SM-LDL (S-SMase [2]; exogenously added): 2-3 fold

HS—CH2—R—CH(CH2—CH(CH3)2)—C)-Phe-Ala-NH2
effect on ability of Zn2+ to activate S-SMase (S-SMase [1]): did not affect

B1: sPLA2: human recombinant nonpancreatic soluble PLA2 (protein, UniProt P14555 21-144, looked up)
Phospholipase A2, membrane …: NLVNFHRMIKLTTGKEAALSYGFYGCHCGVGGRGSPKDATDRCCVTHDCCYKRLEKRGCGTKFLSYKFSNSGSRITCAKQDSCRSQLCECDKAAATCFARNKTTYNKKYQYYSNKHCRGSTPRC
S-SMase hydrolysis of [3H]SM-LDL after treating the LDL with sPLA2 (S-SMase [2]; LDL pretreated 14 h at 37° C.): markedly enhanced

— patent US6613322B2, “Method for treating a subject suffering from conditions associated with an extracellular zinc sphingomyelinase” (The Trustees of Columbia University in the City of New York, priority 1997, dated 2003)
